From publication PMC12298629, “New Derivatives of Caracasine Acid with Anti-Leukemic Activity and Limited Effectiveness in Spheroid Cultures” (Pharmaceuticals, 2025) come the findings set out here.

In experiment [1] the test system is different cell lines (CCRF-CEM, K562, Raji, Ramos, HCT116, HCT116 p53KO, A549, U2OS). Description: Peroxide formation assessment using DCFDA. The format is cell-based, human. The note with it: compounds at 5-fold the IC50; percentage increase versus negative control. As to the method:
The assessment of peroxides was performed as described by Figuero et al. with some modifications. Briefly, the different cell lines, at 10,000 cells per well, were incubated in a sterile 96-well glass-bottom plate from Celvis (München, Germany), which features a black polystyrene frame with high-quality #1.5 glass, suitable for fluorescent assessment. After one hour of incubation in the incubator at 37 °C, 5% CO2, 50 µL of 20 µM 2′,7′-dichlorofluorescein diacetate (DCFDA), Thermo Fisher, was added. The cells were incubated for an additional 30 min to allow for the internalization of the fluorophore. Then, 50 µL of the compounds diluted in media at a concentration 5-fold the IC50 calculated in cytotoxic studies, were added to each well, and the plates were read on an Enspire (PerkinElmer). Fluorescence was measured using the following parameters: excitation at 495 nm and emission at 530 nm. The temperature was maintained at 37 °C, and the readings were taken in bottom mode with three readings per well. Wells containing only RPMI, with 10% FCS, were included as background negative controls. Each experiment was repeated three times on separate occasions (n = 3). Cisplatin was used as a positive control, and the values were calculated based on cells without stimuli (negative control for each cell line). Hydrogen peroxide was used as a possible early marker for apoptosis as described by Miyazato et al..

For the next experiment, the system named is HCT116KO53. Description: Cytotoxic MTS assay, HCT116 p53 knockout 2D. The format is cell-based. The note with it: HCT-116, human tumors 2D, 72 h, median of five assays. An excerpt: (§1) The cancer cell lines used in the cytotoxic assays were acquired from the American Tissue Culture Collection (ATCC) (Manassas, VA, USA) and maintained as described previously. The MRC-5 and BJ human fibroblasts were used as non-tumoral control cells. The (MRC-5 LD and BJ LD) are also human fibroblast cell lines resistant to doxorubicin. […] The Raji and Ramos cell lines correspond to B-cell leukemia. Other cells, such as U2OS, represent a child osteosarcoma, while HCT116 is a colorectal tumor cell line. (HCT116p53^−/−, Horizon Discovery Ltd., Cambridge, UK) is a similar cell line with its p53 gene knocked down, serving as a model of human cancer frequently associated with a poor prognosis. The cells were maintained in Nunc/corning 80 cm^2 plastic tissue culture flasks and cultured in a cell culture medium according to ATCC or Horizon recommendations (McCoy, DMEM/RPMI 1640 with 5 g/L glucose, 2 mM glutamine, 100 U/mL penicillin, […] streptomycin, 10% fetal calf serum, and NaHCO3). The compounds were freshly dissolved in DMSO. The final concentration of DMSO was 0.01% in the cell culture.
(§2) The in vitro cytotoxicity of compounds (1–7) was assessed using the standard 3-(4,5-dimethyl-thiazol-2yl)-5-(3-carboxymethoxyphenyl)-2-(sulfophenyl)-2H-tetrazolium (MTS). The assay was performed at the Institute of Molecular and Translational Medicine using a robotic platform (High-ResBiosolutions, Beverly, MA, USA). Cell suspensions were prepared and diluted according to the specific cell type and the expected target cell density (25,000–35,000 cells/mL, based on cell growth characteristics). An automatic pipettor (30 μL) was used to add cells into 384-well microtiter plates. All tested compounds were dissolved in 100% DMSO, and four-fold dilutions of the intended test concentrations were added in 0.15 μL aliquots at time zero to the microtiter plate wells by the echo acoustic non-contact liquid handler Echo550 (Labcyte, San Jose, CA, USA). The assays were accomplished in technical duplicates and at least three biological replicates. The cells were incubated with the tested compound for 72 h at 37 °C in a 5% CO2 atmosphere with 100% humidity. At the end of the incubation period, cells were assayed using the MTS test. Aliquots (5 μL) of the MTS stock solution were pipetted into each well and incubated for 1–4 h. After this incubation period, the optical density (OD) was measured at 490 nm using an Envision reader (PerkinElmer, Waltham, MA, USA). Tumor cell survival (TCS) was calculated using the following equation: TCS = (OD drug-exposed well/mean OD control wells) × 100%. The IC50 value, representing the concentration of the compound lethal to 50% of the tumor cells, was calculated from the corresponding dose-response curves using Dotmatics software (Updated version 2022, London, UK). After three days of incubation on the cancer cell lines and normal fibroblasts, the […] (IC50) were obtained. Five assays were performed for each cell line. The standard error of the assays was lower than 10%, as assessed by the triplicate assays.
(In general: Formazan colour is commonly taken as a measure of viable cells.)

For the next experiment, the system named is HCT116KO53 spheroids. Kind of experiment: Spheroid viability assay (CellTiter-Glo 3D), HCT116 p53 KO spheroids. Type of experiment: cell-based. Conditions: HCT-116, human tumors spheroids, 72 h, 100 pM to 50 μM. How it is done:
Spheroid culture aims to analyze the drug’s effect on complex structures resembling solid tumors. The spheroids were prepared using the specific nonadherent plates for spheroid formation (Nunc Sphera, Thermo Fisher, Waltham, MA, USA) according to the simple protocol outlined by the manufacturer. The cell lines HCT116 parental, HCT116KOTp53, A549, and U2OS were cultured at a density of 2500 cells per well using medium containing 10% fetal calf serum and antibiotics: McCoy’s 5A medium for HCT116, F-12K (Kaighn’s Modified) for A549, and Dulbecco’s Modified Eagle Medium (DMEM). The cells were grown in culture for 48 h as recommended by the manufacturer and as described by Das et al. and Muñoz-Garcia et al..
The cell viability of the treated spheroids was assessed using the kit CellTiter-Glo 3D (Promega Corporation, Madison, WI, USA). The kit is designed to measure ATP as an indicator of viability, generating a luminescent readout that is more sensitive than colorimetric or fluorescence-based methods. The spheroids were cultivated with compounds at concentrations ranging from 100 pM to 50 μM in triplicate for 72 h, and the luminescence was measured using the Enspire apparatus (PerkinElmer). A standard curve was performed for each analysis as recommended by the manufacturer.
Background: ATP-based viability assays read luminescence as a measure of living cells.

The subject of a further experiment is MRC-5 LD. Description: Cytotoxic MTS assay, MRC-5 LD fibroblasts (doxorubicin-resistant). The format is cell-based. The note with it: MRC5, doxorubicin-resistant human fibroblasts, 72 h, median of five assays.
Description: as §1, §2

Consider `C=C(C)C1CCC23CC(CCC2C1(C)CCC(=O)O)C(C)C3=O` (single isomer, unassigned; ent-3) [Compound 5, Ent-3,4-Seco-15-Oxo-Kaur-4(19)-en-3-Oic Acid], for which the “Peroxide formation (DCFDA)” value in experiment [1] was “did not induce peroxide formation”. Besides, the IC50 with HCT116KO53, in the experiment on HCT116KO53 spheroids and with MRC-5 LD was more than 50 µM each time.

For `C=C1C(=O)C23CCC(C(=C)C)C(C)(CCC(=O)OC)C2CCC1C3` (stereo not shown) [Compound 2, Caracasine], the “Peroxide formation (DCFDA)” value in experiment [1] is reported as “least active”. Also, the IC50 is 1.91 µM in the experiment on HCT116KO53, more than 50 µM in the experiment on HCT116KO53 spheroids and 6.36 µM with MRC-5 LD.

For the compound `C=C1C(=O)C23CCC(C(=C)C)C(C)(CCC(=O)OC(C)=O)C2CCC1C3` (stereo not shown) [Compound 7, Caracasine-Acetic Anhydride], in experiment [1], the “Peroxide formation (DCFDA)” value is on record as “most active”. For the same compound, the figures for the half-maximal inhibitory concentration (IC50) with HCT116KO53, in the experiment on HCT116KO53 spheroids and with MRC-5 LD were 1.91 µM, more than 50 µM and 5.53 µM, respectively.

On to `C=C(C)C1CCC23CC(CCC2C1(C)CCC(=O)OC(C)=O)C(C)C3=O` (single isomer, unassigned; ent-3) [Compound 6, Ent-3,4-Seco-15-Oxo-Kaur-4(19)-en-Acetic Anhydride], for which, in experiment [1], the “Peroxide formation (DCFDA)” value was “did not induce peroxide formation”. Also, the IC50 in the experiment on HCT116KO53, in the experiment with HCT116KO53 spheroids and with MRC-5 LD was more than 50 µM throughout.

What is called IC50 is the midpoint of a concentration-inhibition curve. Read a low IC50 as greater potency in that assay.
